Reference: ChEMBL document CHEMBL5126603, “Discovery of Clinical Candidate CHF-6366: A Novel Super-soft Dual Pharmacology Muscarinic Antagonist and β2 Agonist (MABA) for the Inhaled Treatment of Respiratory Diseases” (J Med Chem, 2022)

Tests used:
[1] = In vivo antagonist activity at muscarinic M3 receptor in Dunkin-Hartley guinea pig trachea assessed as inhibition of acetylcholine induced bronchoconstriction at 1 nmol/Kg, IT(Intratracheal) measured after 24 hr in presence of ICI-118551 by Konzett-Roessler methodology relative to control; assay type: functional; conditions: Cavia porcellus
[2] = AUCinfinity in Dunkin-Hartley guinea pig lung at 500 nmol/Kg, IT(Intratracheal) measured after 72 hrs by LC/MS-MS analysis; assay type: ADME, tissue-based, Cavia porcellus; parameters: dose 500 nmol/kg, time 72 hrs, route it(Intratracheal); conditions: in vivo, inhaled_or_intranasal
[3] = Metabolic stability in human liver microsomes assessed as clearance at 1 uM measured per mg protein incubated upto 60 mins in presence of NADPH by LC-MS/MS analysis; assay type: ADME, Microsome; conditions: read-out: CLH
[4] = Metabolic stability in rat plasma assessed as half life at 5 uM measured upto 120 mins by LC-MS/MS analysis; assay type: ADME, cell-free
[5] = AUClast in Dunkin-Hartley guinea pig lung at 500 nmol/Kg, IT(Intratracheal) measured after 72 hrs by LC/MS-MS analysis; assay type: ADME, tissue-based, Cavia porcellus; conditions: in vivo, inhaled_or_intranasal
[6] = molecular target: L-type calcium channel phenylalkylamine site (Homo sapiens, UniProt O60840+Q01668+Q13698+Q13936); assay: Inhibition of L-type calcium channel phenylalkylamine site (unknown origin) at 10 uM relative to control; assay type: protein assay
[7] = test system: Trachea; assay: Bifunctional antagonist activity at muscarinic M3 receptor /agonist activity at beta-2 adrenoceptor in Dunkin-Hartley guinea pig trachea assessed as inhibition of acetylcholine-induced bronchoconstriction at 1 nmol/Kg, IT(Intratracheal) measured after 15 mins by Konzett-Roessler methodology relative to control; assay type: functional; conditions: Cavia porcellus, 0.25 h
[8] = Cmax in Dunkin-Hartley guinea pig lung at 500 nmol/Kg, IT(Intratracheal) measured after 72 hrs by LC/MS-MS analysis; assay type: ADME, tissue-based, Cavia porcellus; parameters: time 72 hrs, dose 500 nmol/kg, route it(Intratracheal); conditions: inhaled or intranasal
[9] = molecular target: 5-hydroxytryptamine receptor 1B (Homo sapiens) (UniProt P28222); assay: Inhibition of 5-HT1B receptor (unknown origin) at 10 uM relative to control
[10] = Metabolic stability in human lung S9 fraction assessed as half life at 1 uM measured after 0 to 60 mins in presence of NADPH by LC-MS/MS analysis; assay type: ADME, subcellular; conditions: time 0-60 min
[11] = Efflux ratio of apparent permeability from basolateral to apical side over apical to basolateral side in human Caco-2 cells at 10 uM and measured after 2 hrs by LC-MS/MS analysis; assay type: ADME, cell-based
[12] = test system: Trachea; assay: In vivo bifunctional antagonist activity at muscarinic M3 receptor /agonist activity at beta-2 adrenoceptor in Dunkin-Hartley guinea pig trachea assessed as inhibition of carbachol induced contraction; assay type: functional, tissue-based; conditions: Cavia porcellus
[13] = molecular target: 5-hydroxytryptamine receptor 2A (Homo sapiens) (UniProt P28223); assay: Inhibition of 5-HT2a (unknown origin) at 10 uM relative to control
[14] = In vivo antagonist activity at muscarinic M3 receptor in Dunkin-Hartley guinea pig trachea assessed as inhibition of acetylcholine induced bronchoconstriction at 0.3 nmol/Kg, IT(Intratracheal) measured after 24 hr in presence of ICI-118551 by Konzett-Roessler methodology relative to control; assay type: functional; conditions: Cavia porcellus
[15] = Metabolic stability in rat liver microsomes assessed as clearance at 1 uM measured per mg protein incubated upto 60 mins in presence of NADPH by LC-MS/MS analysis; assay type: ADME, Microsome; conditions: read-out: CLH
[16] = In vivo agonist activity at beta-2 adrenoceptor in Dunkin-Hartley guinea pig trachea assessed as inhibition of histamine induced bronchoconstriction at 0.3 nmol/Kg, IT(Intratracheal) measured after 1 hr by Konzett-Roessler methodology relative to control; assay type: functional; conditions: Cavia porcellus
[17] = test system: Trachea; assay: Bifunctional antagonist activity at muscarinic M3 receptor /agonist activity at beta-2 adrenoceptor in Dunkin-Hartley guinea pig trachea assessed as inhibition of acetylcholine-induced bronchoconstriction at 0.1 nmol/Kg, IT(Intratracheal) measured after 5 mins by Konzett-Roessler methodology relative to control; assay type: functional; conditions: Cavia porcellus
[18] = Toxicity in INH dosed dog assessed as maximum tolerated dose measured after 7 days; assay type: organism-based, Canis lupus familiaris; conditions: in vivo, inhaled or intranasal, time 7 day
[19] = test system: Trachea; assay: Bifunctional antagonist activity at muscarinic M3 receptor /agonist activity at beta-2 adrenoceptor in Dunkin-Hartley guinea pig trachea assessed as inhibition of acetylcholine-induced bronchoconstriction at 1 nmol/Kg, IT(Intratracheal) measured after 30 mins by Konzett-Roessler methodology relative to control; assay type: functional; conditions: Cavia porcellus, 0.5 h
[20] = Metabolic stability in rat lung S9 fraction assessed as half life at 1 uM measured after 0 to 60 mins in presence of NADPH by LC-MS/MS analysis; assay type: ADME, subcellular; conditions: time 0-60 min
[21] = AUClast in Dunkin-Hartley guinea pig plasma at 500 nmol/Kg, IT(Intratracheal) measured after 72 hrs by LC/MS-MS analysis; assay type: ADME, cell-free, Cavia porcellus; parameters: time 72 hrs, dose 500 nmol/kg, route it(Intratracheal); conditions: inhaled or intranasal
[22] = test system: Trachea; assay: Bifunctional antagonist activity at muscarinic M3 receptor /agonist activity at beta-2 adrenoceptor in Dunkin-Hartley guinea pig trachea assessed as inhibition of acetylcholine-induced bronchoconstriction at 1 nmol/Kg, IT(Intratracheal) measured after 5 mins by Konzett-Roessler methodology relative to control; assay type: functional; conditions: Cavia porcellus
[23] = test system: Trachea; assay: Bifunctional antagonist activity at muscarinic M3 receptor /agonist activity at beta-2 adrenoceptor in Dunkin-Hartley guinea pig trachea assessed as inhibition of acetylcholine-induced bronchoconstriction at 0.3 nmol/Kg, IT(Intratracheal) measured after 30 mins by Konzett-Roessler methodology relative to control; assay type: functional; conditions: Cavia porcellus, 0.5 h
[24] = Tmax in Dunkin-Hartley guinea pig lung at 500 nmol/Kg, IT(Intratracheal) measured after 72 hrs by LC/MS-MS analysis; assay type: ADME, tissue-based, Cavia porcellus; conditions: inhaled or intranasal
[25] = Apparent permeability across basolateral to apical side in human Caco-2 cells at 10 uM and measured after 2 hrs by LC-MS/MS analysis; assay type: ADME, cell-based
[26] = Cmax in Dunkin-Hartley guinea pig plasma at 500 nmol/Kg, IT(Intratracheal) measured after 72 hrs by LC/MS-MS analysis; assay type: ADME, cell-free, Cavia porcellus; parameters: dose 500 nmol/kg, time 72 hrs, route it(Intratracheal); conditions: inhaled or intranasal
[27] = Tmax in Dunkin-Hartley guinea pig plasma at 500 nmol/Kg, IT(Intratracheal) measured after 72 hrs by LC/MS-MS analysis; assay type: ADME, cell-free, Cavia porcellus; conditions: inhaled or intranasal
[28] = test system: Trachea; assay: Bifunctional antagonist activity at muscarinic M3 receptor /agonist activity at beta-2 adrenoceptor in Dunkin-Hartley guinea pig trachea assessed as inhibition of acetylcholine induced bronchoconstriction at 1 nmol/Kg, IT(Intratracheal) measured after 24 hr by Konzett-Roessler methodology relative to control; assay type: functional; conditions: Cavia porcellus
[29] = Metabolic stability in rat hepatocytes assessed as clearance at 1 uM measured per 10^6 cells and incubated upto 90 mins by LC-MS/MS analysis; assay type: ADME, cell-based, Hepatocyte; conditions: read-out: CLH
[30] = Half life in Dunkin-Hartley guinea pig lung at 500 nmol/Kg, IT(Intratracheal) measured after 72 hrs by LC/MS-MS analysis; assay type: ADME, tissue-based, Cavia porcellus; conditions: inhaled or intranasal

Sequence of 5-hydroxytryptamine receptor 2A (Homo sapiens) (P28223 whole entry): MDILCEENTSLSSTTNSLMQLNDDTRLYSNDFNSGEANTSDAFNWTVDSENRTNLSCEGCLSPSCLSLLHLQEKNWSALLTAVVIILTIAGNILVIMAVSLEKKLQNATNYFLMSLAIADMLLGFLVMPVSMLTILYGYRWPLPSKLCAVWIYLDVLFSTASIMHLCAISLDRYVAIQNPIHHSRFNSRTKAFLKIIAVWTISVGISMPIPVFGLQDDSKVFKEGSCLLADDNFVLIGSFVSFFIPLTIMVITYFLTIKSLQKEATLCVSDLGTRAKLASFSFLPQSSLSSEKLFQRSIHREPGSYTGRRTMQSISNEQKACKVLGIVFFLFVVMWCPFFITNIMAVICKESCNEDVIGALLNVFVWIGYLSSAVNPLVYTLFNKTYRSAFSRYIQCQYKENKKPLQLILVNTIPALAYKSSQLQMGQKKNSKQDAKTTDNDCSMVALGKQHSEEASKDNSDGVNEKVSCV
Sequence of 5-hydroxytryptamine receptor 1B (Homo sapiens) (P28222 whole entry): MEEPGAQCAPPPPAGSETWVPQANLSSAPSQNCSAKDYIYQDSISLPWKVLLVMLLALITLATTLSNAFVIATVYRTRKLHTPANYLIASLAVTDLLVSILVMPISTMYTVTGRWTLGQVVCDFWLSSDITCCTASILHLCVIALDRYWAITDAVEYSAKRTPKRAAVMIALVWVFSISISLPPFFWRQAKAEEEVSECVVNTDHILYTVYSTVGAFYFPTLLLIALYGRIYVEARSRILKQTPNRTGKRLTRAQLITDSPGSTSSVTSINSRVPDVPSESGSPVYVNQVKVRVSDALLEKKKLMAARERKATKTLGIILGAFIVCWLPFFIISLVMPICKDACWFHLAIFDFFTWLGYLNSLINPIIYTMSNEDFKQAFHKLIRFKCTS

Cn1nc(C(=O)OCCCCNC[C@H](O)c2ccc(O)c3[nH]c(=O)ccc23)cc1COc1cccc([C@@H](NC(=O)O[C@H]2CN3CCC2CC3)c2ccccc2)c1
inhibition in vivo at 0.001 µmol/kg [1]: 47.2%
AUC [2]: 725199 ng·h/g
microsomal CLint at 1 µM [3]: 14 µL/min/mg
half-life at 5 µM [4]: < 5 min
AUClast [5]: 460361 ng·h/g
inhibition at 10 µM [6]: > 65%
inhibition in vivo at 0.001 µmol/kg [7]: 91.3%
Cmax [8]: 28400 ng/g
inhibition [9]: > 65%
half-life at 1 µM [10]: > 120 min
efflux ratio at 2 h, 10 µM [11]: 0.7
IC50 [12]: 0.316 nM
inhibition [13]: > 65%
inhibition in vivo at 0.0003 µmol/kg [14]: 30.1%
microsomal CLint at 1 µM [15]: 37 µL/min/mg
inhibition in vivo at 0.0003 µmol/kg [16]: 31.9%
inhibition in vivo at 0.0001 µmol/kg [17]: 9.7%
MTD at 168 h [18]: 0.124 mg/kg/day
inhibition in vivo at 0.001 µmol/kg [19]: 90.8%
half-life at 1 µM [20]: 30 min
AUC(0-t) at 72 h [21]: 460 ng·h/mL
inhibition in vivo at 0.001 µmol/kg [22]: 90.1%
inhibition in vivo at 0.0003 µmol/kg [23]: 65.9%
Tmax [24]: 4.98 min
Papp B→A at 2 h, 10 µM [25]: 1.5 ×10⁻⁶ cm/s
Cmax [26]: 126 ng/g
Tmax [27]: 4.98 min
inhibition in vivo at 0.001 µmol/kg [28]: 74.8%
hepatocyte CLint at 1 µM [29]: 32 µL/min/1e6 cells
half-life [30]: 49.2 h
